Test results as given in US12070458B2, “Therapeutic agent composition and method of use, for treatment of mild congnitive impairment, depression, and psychological disorders” (priority 2018, dated 2024).

What was measured:
[1] = system: cerebellar microexplants (P4); test: Glutamate induced neuronal death in cerebellar microexplants (P4); format: cell-based, Wistar rats
Method: Cerebellar Cell Culture Preparing and Coating of Cover Slips
Ten coverslips were placed into a large petri dish and washed in 70% alcohol for 5 minutes, then washed with Millipore H2O. The coverslips were air dried, then coated with Poly-D-Lysine (1 mg/ml stock solution in PBS, 90-100 μl) and incubated for 2 hours at 34° C.
Postnatal day 4 Wistar rats were used for the study. Rats were placed in ice for 1 minute, the heads were decapitated and the cerebellum removed on ice. Cerebellum tissue was placed in 1 ml of 0.65% glucose supplemented PBS (10 μl 65% stock D (+)glucose/1 ml PBS) in a large petri dish, chopped up into smaller sections and triturate with a 1 ml insulin syringe via a 23 G (0.4 mm) needle, and then squirted back into the glucose solution on the large petri dish. The tissue was sieved through (125 μm pore size gaze) and centrifuged (2 minutes at 60 g) two times for a medium exchange into serum-free BSA-supplemented START V medium (Biochrom). The second centrifugation step was done with 1 ml of START V medium. The microexplants were reconstituted into 500 μl of START V medium and put on ice.
Cultivation and Fixation of Cerebellar Cells
Two hours after PDL-coating, the slides were washed with Millipore H2O and air dried. Each slide was placed into a small 35 mm petri dish and 40 μl of START V/cell suspension added. The tissue was incubated for 2 hours at 34° C. (settlement period). START V-medium (1 ml) was then added to the petri dish and cultivated at 34° C./5% CO2/100% humidity for 48 hours. Cells were rinsed in PBS and then fixed for 2-3 minutes in increasing concentrations of paraformaldehyde (500 μl of 0.4% PFA was applied; then 1.2% PFA; then 3% PFA and finally 4% PFA—all fixation solutions contain 0.2% glutardialdehyde). Finally, the microexplants were rinsed in PBS.
(§1) 10 μl of toxin (L-glutamate-100 mM in Millipore water) was applied simultaneously with cPG (from bachem, 10 mM stock prepared in PBS and diluted to final concentrations between 1-100 nM) for Study 1. A delay in administration of cPG at 6 hours after glutamate treatment was performed for Study 2.
as §1, with “cyclic(tri(prolylglycyl)) (which was obtained from NeuroBiomed, San Jose, California),” for “cPG (from bachem,”, “cyclic(tri(prolylglycyl))” for “cPG”
as §1, with “cyclic Glycyl-2-Methyl Proline (obtained NeuroBiomed, San Jose California),” for “cPG (from bachem,”

[2] = system: 6-OHDA induced nigral-striatal lesion; test: 6-OHDA induced nigral-striatal lesion, apomorphine-induced contralateral rotations; format: in vivo, Wistar rats; details: 1 mg (mg/kg) i.p. 2 hours post lesion; 7 days post-lesion, apomorphine 0.1 mg/kg; n=5; vehicle 290±18 or 292±21
Method: Twenty male Wistar rats (280-310 g) were used. After exposing the skull, 6-OHDA (8 μg in a base of 2 μl 0.9% saline containing 1% ascorbic acid) was administered into the right medial forebrain bundle (MFB) using co-ordinates AP +4.7 mm, R 1.6 mmv −8 mm under 3% halothane anaesthesia. 6-OHDA was injected through a 25G needle connected via a polyethylene catheter to a 100 μl Hamilton syringe. The 6-OHDA was infused by a microdialysis infusion pump at a rate of 0.5 μl/min. The needle was left in the brain for a further 3 minutes before being slowly withdrawn. The skin was sutured with 2.0 silk and the rats were allowed to recover from anaesthesia. The rats were housed in a holding room with free access to food and water at all times except during behavioural testing.
Cyclic PG was dissolved in saline. Four different doses of cPG (0, 0.1, 0.5, 1 mg/kg, Bachem) were administered intraperitoneally 2 hours post lesion.
At 7 days post-lesion, rats were injected with 0.1 mg/kg apomorphine and the number of contralateral rotations/hour was recorded and calculated using a computerised Rotameter (St Diego Instruments). Experimenter was blinded from the treatment groups.
Cyclic(tri(prolylglycyl)) was dissolved in saline solution. Four different doses of Cyclic(tri(prolylglycyl)) (0, 0.1, 0.5, 1 mg/kg, NeuroBiomed) were administered intraperitoneally 2 hours post lesion.
Cyclic Glycyl-2-Methyl Proline (cGMeP) was dissolved in saline solution. Four different doses of cGMeP (0, 0.1, 0.5, 1 mg/kg, NeuroBiomed) were administered intraperitoneally 2 hours post lesion.

[3] = system: patients with major depressive disorder; test: Double-blind, randomized, placebo-controlled, active reference study in patients with major depressive disorder; format: in vivo, human; details: for change from baseline in MADRS total score, Mean ± SD / MADRS total score, Difference to Placebo: week 6, venlafaxine 75 mg/d orally
Excerpt: This randomized, double-blind, fixed-dose, placebo-controlled, active reference study recruited 32 randomized patients in accordance with the principles of Good Clinical Practice [ICH (1996). Harmonized Tripartite Guideline E6: Guideline for Good Clinical Practice (http://www.fda.gov/downloads/drugs/guidancecomplianceregulatoryinformation/gui dances/ucm073122.pdf)] and the Declaration of Helsinki [WMA (1964). Ethical Principles for Medical Research Involving Human Subjects (http://www.wma.net/en/30publications/10policies/b3/). World Medical Association.] Local ethics committees approved the study design and eligible patients gave their written informed consent before participating.
Eligible patients were randomized equally (1:1:1:1) to one of the four treatment arms for a 6-week double-blind treatment period. Randomized patients were given 1-week wallet cards at each visit and were instructed to take two capsules per day, orally, at the same time every day (preferably in the morning). NA-831 was dosed at 20 mg/day or 40 mg/d for 6 week and venlafaxine at 75 mg/d over 6-week treatment period. Efficacy and tolerability were assessed at screening, baseline and after 1, 2, 3, 4, 5, and 6 week. Patients were contacted for a safety follow-up 4 week after the completion visit.
Patients with MDD presenting with a current major depressive episode according to DSM-IV-TR criteria were included in the study if they were an outpatient of either sex, aged from 20 yr to 65 yr, (mean=39.7±8.5) (with a Montgomery—Åsberg Depression Rating Scale (MADRS) (Montgomery & Åsberg, 1979) total score ≥30 at the baseline visit. [Montgomery S Åsberg M (1979). A new depression scale designed to be sensitive to change. British Journal of Psychiatry 134 382-389.https://doi.org/10.1192/bjp.134.4.382]
Patients were evaluated using the MADRS from baseline to week 6. Rater training was undertaken to increase inter-rater reliability, and was supervised by an experienced investigator. Only those investigators who had actively participated in rater training sessions prior to inclusion of patients into the study were allowed to rate patients. Patient ratings were assessed by the same investigator at each visit, whenever possible.
All safety analyses were based on the all-patients-treated set (APT), comprising all randomized patients who took at least one dose of study medication. All efficacy analyses were based on a modified intent-to-treat set (ITT)—the full-analysis set (FAS), comprising all patients in the […] who had at least one valid post-baseline MADRS total score assessment.
Four hypotheses were part of the primary efficacy analysis, which was fully adjusted for multiplicity using a hierarchical testing procedure at the 5% level of significance as long as the previous hypothesis was rejected. The order of testing was: no difference between the 20 mg dose vs. placebo at week 6, no difference between […] at week 6, no difference between 20 mg dose vs. placebo at week 1, and finally no difference between 40 mg dose vs. placebo at week 1. The statistical model was an analysis of covariance (ANCOVA) of the change from baseline in MADRS total score (FAS, LOCF) with treatment and site as fixed factors and the baseline MADRS score as a covariate. The primary efficacy analysis was repeated on observed cases (OC) data, using both an ANCOVA and a mixed model for repeated measurements (MMRM).
All adverse effects (AEs) (including any change in concurrent illnesses or new illnesses) either observed by the investigator or reported spontaneously by the patient were recorded. AEs were coded using the lowest level term according to the Medical Dictionary for Regulatory Activities, version 10.0. As a post-hoc analysis, the safety database was searched at preferred-term and verbatim-term level for possible suicide-related AEs, as described by the FDA [Laughren (2006). Memorandum on Suicidality. (http://www.fda.gov/ohrms/dockets/ac/06/briefing/2006-4272b1-01-fda.pdf)].

SMILES | improvement, recovery from glutamate induced neurotoxicity ([1]; 1-100 nM given 6 hours after the glutamate treatment, compared to vehicle) | reduction of glutamate induced neuronal death ([1]; administered simultaneously with glutamate, 1-100 nM, glutamate alone 85% loss of neurons) [%] | number of contralateral rotations/hour [2] [rotations/hour] | patients with one or more AEs ([3]; 6-week treatment period, venlafaxine group) [%] | change from baseline in MADRS total score, Mean ± SD ([3]; LOCF, ANCOVA) | MADRS total score, Difference to Placebo ([3]; MMRM) | change from baseline in MADRS total score, Mean ± SD ([3]; MMRM) | MADRS total score, Difference to Placebo ([3]; MMRM, listed as venlafaxine) | MADRS total score, Difference to Placebo ([3]; OC, ANCOVA) | change from baseline in MADRS total score, Mean ± SD ([3]; OC, ANCOVA) | patients withdrawn due to AEs ([3]; venlafaxine group) | AEs reported by a majority of patients ([3]; venlafaxine group, 6 week)
CC12CCCN1C(=O)CNC2=O [cGMeP, (8aS)-Methyl-hexahydropyrrolo[1,2-a]pyrazine-1,4-dione] | approximately 58% | 63 | 134±69 | – | – | – | – | – | – | – | – | –
COc1ccc(C(CN(C)C)C2(O)CCCCC2)cc1 (stereo not drawn) [Venlafaxine, reference compound] | – | – | – | 75 | −21.9 ± 1.0 | −8.1 ± 1.3 | −23.5 ± 0.9 | 5.6±1.3 | −5.6 ± 1.3 | −22.2 ± 0.9 | 2 (25%) patients (%) | nausea, severe headache loss of strength, blurred vision, chest pain, fast or irregular heartbeat and suicidal thoughts
